Among the test systems are DLD-1 colon; DMS 273 small cell lung; KM20L2 colon; M19-MEL melanoma; RXF-631 renal; SNB-78 CNS; XF 498 CNS; MDA-N; T-47D breast; P388 leukemia; P388/ADR leukemia; SN12K1 renal.
Holding throughout (test): NCI tumour cell line growth inhibition, 48 h

These results are taken from PubChem BioAssay (NCI).

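Values below derive from 48-hour exposures of cells grown in 96-well plates, with endpoints linearly interpolated between the two concentrations bracketing the appropriate inhibition level. TGI: concentration producing complete growth inhibition.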

On to `O=S1Nc2c(Cl)cc(Cl)c3c(Cl)cc(Cl)c(c23)N1`, for which the TGI in the assay with DLD-1 colon is 74.8 µM; in the assay with DMS 273 small cell lung, above 100 µM; with KM20L2 colon, above 100 µM; in the assay on M19-MEL melanoma it was above 100 µM; in the assay on RXF-631 renal, above 100 µM.

As to `CSc1n[n+]2c(s1)SCCC2`, the TGI with DLD-1 colon, with DMS 273 small cell lung, with M19-MEL melanoma, in the assay with RXF-631 renal, in the assay with SNB-78 CNS and with XF 498 CNS was above 100 µM each time.

As to `COC(=O)C(Cc1nc2ccccc2[nH]c1=O)C(=O)C(=O)Nc1ccc([N+](=O)[O-])cc1[N+](=O)[O-]` (stereo not drawn), the TGI is 42 µM in the assay with DLD-1 colon; 47.5 µM in the assay on DMS 273 small cell lung; 38.3 µM in the assay with KM20L2 colon; 33.9 µM in the assay on M19-MEL melanoma; 73.1 µM with RXF-631 renal; above 100 µM in the assay with SNB-78 CNS. The compound also displayed a TGI in the assay on XF 498 CNS of 34.6 µM.

Regarding `CN(C)c1nc(=Nc2cccc(Cl)c2)ss1`, the TGI in the assay on DLD-1 colon was found to be 24.8 µM; in the assay on DMS 273 small cell lung, 29.9 µM; in the assay on KM20L2 colon it was 35.5 µM; with M19-MEL melanoma it was 32.6 µM; in the assay with RXF-631 renal it was 26.8 µM; in the assay on SNB-78 CNS it was 34 µM. In the assay with XF 498 CNS, this compound registered a TGI of 32.4 µM.

`CCOC(=O)C(C)(C)Oc1ccc(/C=C/C(=O)c2ccc(Cl)cc2)cc1`: the TGI in the assay with DLD-1 colon is 27.9 µM; with DMS 273 small cell lung, 34.6 µM; in the assay with KM20L2 colon it was 33.7 µM; in the assay on M19-MEL melanoma, 38.2 µM; in the assay on RXF-631 renal it was 38.5 µM; with XF 498 CNS, 39.1 µM.

For the compound `CC/C(CC(=O)CCC(=O)Nc1ccccc1[N+](=O)[O-])=N/NC(=O)C[n+]1ccccc1`, the TGI with DMS 273 small cell lung, with KM20L2 colon, with M19-MEL melanoma, in the assay with RXF-631 renal and in the assay on SNB-78 CNS was above 100 µM throughout.

For the compound `O=C1C=CC(=O)c2cc(Sc3ccccc3)c(=O)ccc21`, the TGI with DLD-1 colon amounted to 39 µM; in the assay with DMS 273 small cell lung, 35.1 µM; in the assay on KM20L2 colon, 38 µM; with M19-MEL melanoma, 35.3 µM; with MDA-N, 33.4 µM; in the assay on RXF-631 renal it was 43.4 µM. In addition, the TGI in the assay with SNB-78 CNS was found to be 42.6 µM; with T-47D breast it was 12.5 µM.

As for `CCOc1cccc2ccc[n+](CC)c12`, the TGI in the assay with DLD-1 colon, in the assay with DMS 273 small cell lung, in the assay with KM20L2 colon, in the assay on M19-MEL melanoma, in the assay with RXF-631 renal and in the assay on XF 498 CNS was above 100 µM each time.

As to `O=[N+]([O-])C1Cc2ccccc2OC1c1ccccc1` (stereo not drawn), the TGI in the assay with DLD-1 colon is above 100 µM; with DMS 273 small cell lung it was above 100 µM; in the assay on KM20L2 colon, above 100 µM; in the assay on M19-MEL melanoma, above 100 µM; in the assay on RXF-631 renal, above 100 µM; in the assay on SNB-78 CNS, 51.5 µM.

On to `Nc1ccn(C2OC(COC(=O)C34CC5CC(CC(C5)C3)C4)C(O)C2O)c(=O)n1` (stereo not drawn), for which the TGI in the assay with DLD-1 colon, in the assay with DMS 273 small cell lung, with KM20L2 colon, in the assay on M19-MEL melanoma, with MDA-N and in the assay with P388 leukemia was above 100 µM in each case. The TGI in the assay with P388/ADR leukemia, in the assay with SN12K1 renal, with SNB-78 CNS and with T-47D breast was above 100 µM in each case.

For `CC[N+]1(C)CCC(O)(c2ccc(OC)cc2)C(C(=O)c2ccc(OC)cc2)C1` (stereo not drawn), the TGI with DLD-1 colon was 8.03 µM; in the assay on DMS 273 small cell lung, 43.1 µM; in the assay on KM20L2 colon it was 46.2 µM; with M19-MEL melanoma it was 42.4 µM; with MDA-N, 31.9 µM; in the assay on RXF-631 renal, 34.5 µM. For the same compound, the TGI with SNB-78 CNS is 41.5 µM; in the assay with T-47D breast it was 33.8 µM; with XF 498 CNS it was 23.3 µM.

Regarding `Cc1cc(Cl)ccc1NC(=O)C(=O)C(C(=O)c1ccc2ccccc2c1)C1OC(=O)c2ccccc21` (stereo not drawn), the TGI in the assay on DLD-1 colon stood at 30.4 µM; in the assay with DMS 273 small cell lung, 37.1 µM; with KM20L2 colon, 61.7 µM; in the assay on M19-MEL melanoma it was 29.7 µM; with RXF-631 renal it was 31.2 µM; in the assay on SNB-78 CNS, 49.9 µM.

As to `Cc1cc(N(CCC#N)S(C)(=O)=O)ccc1C=Nc1ccc(C(=O)NN2C(=O)/C(=C/c3ccc(N(CCC#N)CCC#N)cc3C)N=C2c2cc([N+](=O)[O-])ccc2Cl)cc1`, the TGI in the assay with DLD-1 colon, in the assay with DMS 273 small cell lung, in the assay with KM20L2 colon, in the assay on M19-MEL melanoma, in the assay with RXF-631 renal and with SNB-78 CNS was above 100 µM in each case. Also, the TGI in the assay with XF 498 CNS was above 100 µM.
